The values that follow come from ChEMBL document CHEMBL1201862, “PubChem BioAssay data set” (2004).

Holding throughout (assay): growth of human tumour cells (NCI), 48 h
For assay [1], the system named is A498.
Assay [2] has as its system CCRF-CEM.
Assay [3] deals with UACC-257.
Assay [4] concerns SW-620.
For assay [5], the system named is HOP-92.
Assay [6] relates to RPMI-8226.
Assay [7] relates to SNB-19.
Assay [8] relates to OVCAR-3.
In assay [9] the test system is UACC-62.
Assay [10] concerns TK-10.
Assay [11] deals with A549.
Assay [12] concerns HL-60.
The test system of assay [13] is RXF 393.
For assay [14], the system named is SK-MEL-2.

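Each compound was tested at five concentrations against cells in 96-well plates for 48 hours. GI50 = concentration required for 50% inhibition of growth.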 The source made the active and inactive calls. Cut-off read from the data, not from the text of the source: active = GI50 up to about 1.1 µM and inactive = higher.

With `Sc1nnc(COc2ccc(Cl)cc2)o1`, the GI50 is > 100 µM (inactive) in [1]; > 100 µM (inactive) in [2]; > 100 µM (inactive) in assay [3]; 15.5 µM (inactive) in [4]; 84.3 µM (inactive) in [5]; > 100 µM (inactive) in [6]. Besides, the GI50 in assay [7], in [8], in assay [9], in assay [10], in assay [11] and in [12] was > 100 µM (inactive) each time.
As to `CC1(C)OCC(C(O)C2OC(C)(C)OC2/C=N\O)O1` (centres undefined), the GI50 in assay [1], in assay [13], in assay [2], in assay [3], in assay [4] and in assay [5] was > 100 µM (inactive) each time. Moreover, the GI50 in assay [6], in assay [7], in [14], in assay [8], in assay [10] and in assay [11] was > 100 µM (inactive) each time. Further, in assay [12], the GI50 is > 100 µM (inactive).
Take `CC1(C)C2C=CC1C(=O)CC2` (centres undefined): the GI50 was > 100 µM (inactive) in assay [1]; > 100 µM (inactive) in [13]; > 100 µM (inactive) in assay [2]; 49.9 µM (inactive) in [3]; > 100 µM (inactive) in assay [4]; > 100 µM (inactive) in assay [5]. For the same compound, the GI50 was > 100 µM (inactive) in assay [6]; 15.9 µM (inactive) in assay [7]; > 100 µM (inactive) in [14]; > 100 µM (inactive) in assay [8]; > 100 µM (inactive) in assay [10]; > 100 µM (inactive) in assay [11]. For the same compound, the GI50 in assay [12] was > 100 µM (inactive).
For the compound `CCOC(=O)CCn1[nH]c(=O)c(Cl)c(Cl)c1=O`, the GI50 in assay [1], in assay [13], in [2], in assay [3], in assay [4] and in assay [5] was > 100 µM (inactive) throughout. Besides, the GI50 in assay [7], in [14], in assay [8], in assay [9], in [10] and in [11] was > 100 µM (inactive) in each case. In addition, in assay [12], the GI50 was > 100 µM (inactive).
Regarding `C[C@]12CCC(=O)C=C1CC[C@@H]1[C@@H]2[C@@H](O)C[C@@]2(C)[C@H]1CC[C@]2(O)C(=O)COC(=O)COCC(=O)O`, the GI50 in assay [1], in [2], in assay [3], in [4], in [5] and in assay [6] was > 100 µM (inactive) in each case. Moreover, the GI50 in [7], in assay [14], in assay [8], in assay [9], in [10] and in [11] was > 100 µM (inactive) in each case. The GI50 in assay [12] is > 100 µM (inactive).
With `CCOC(=O)CNc1nnnn1C1OC(CO)C(O)C1O` (centres undefined), the GI50 in assay [1], in [13], in [2], in assay [3], in assay [4] and in assay [6] was > 100 µM (inactive) throughout. Also, the GI50 in [14], in [8], in assay [9], in assay [10] and in [11] was > 100 µM (inactive) in each case.
`CC1CCC(C(C)C)C(O[C@@H]2OC(=O)C[C@@H]2Sc2ccccc2)C1` (some centres undefined): the GI50 in assay [1] is 28.6 µM (inactive); in assay [13] it was 13.4 µM (inactive); in [2], 7.01 µM (inactive); in assay [3] it was 16.3 µM (inactive); in assay [4], 18.2 µM (inactive); in assay [6], 13.3 µM (inactive). The GI50 in assay [7] was 35.1 µM (inactive); in [14] it was 17.5 µM (inactive); in assay [8] it was 14.5 µM (inactive); in [9], 24.7 µM (inactive); in [10] it was 53.3 µM (inactive); in [11] it was 24.9 µM (inactive). Besides, in assay [12], the GI50 was 18.2 µM (inactive).
In the case of `CCCCCCCCCCCCCCC(O)C1CCC(C(O)CCC(O)CCCCCC(O)CC2=CC(C)OC2=O)O1` (centres undefined), the GI50 in assay [1] is 4.45 µM (inactive); in [2], 1.29 µM (inactive); in assay [3] it was 0.18 µM (active); in assay [4] it was 2.52 µM (inactive); in assay [5], 2.06 µM (inactive); in assay [6], 0.187 µM (active). The GI50 in assay [7] was 1.81 µM (inactive); in [14], 2.54 µM (inactive); in assay [8], 1.13 µM (inactive); in assay [9], 2.33 µM (inactive); in assay [10], 4.27 µM (inactive); in [11] it was 2.2 µM (inactive). Also, in [12], the GI50 was 0.0117 µM (active).
In the case of `CC(C)(CN1CCCCC1)C(=O)/C=C/c1ccccc1`, the GI50 was 18.5 µM (inactive) in assay [1]; 11.9 µM (inactive) in assay [13]; 5.93 µM (inactive) in assay [2]; 14.5 µM (inactive) in assay [3]; 11.6 µM (inactive) in assay [4]; 14.7 µM (inactive) in assay [6]. Further, the GI50 in assay [7] was 16.4 µM (inactive); in assay [14] it was 14.4 µM (inactive); in assay [8] it was 6.07 µM (inactive); in assay [9], 18.9 µM (inactive); in assay [10], 16.3 µM (inactive); in assay [11], 16.9 µM (inactive).
For the compound `COc1ccc(-c2cc(-c3ccco3)c(C#N)c(=O)[nH]2)cc1`, the GI50 was 28.2 µM (inactive) in assay [1]; 45.1 µM (inactive) in assay [13]; > 100 µM (inactive) in assay [2]; 77.4 µM (inactive) in assay [3]; > 100 µM (inactive) in assay [4]; > 100 µM (inactive) in [5]. Moreover, the GI50 in assay [6] is > 100 µM (inactive); in assay [7] it was > 100 µM (inactive); in [8] it was 22.7 µM (inactive); in [9], > 100 µM (inactive); in [10], 50.8 µM (inactive); in assay [11], 91.4 µM (inactive). Further, the GI50 in [12] was > 100 µM (inactive).
For `O=C(C/C(CCC(=O)N(Cc1ccccc1)Cc1ccccc1)=N/Nc1ccc([N+](=O)[O-])cc1[N+](=O)[O-])c1ccccc1`, the GI50 in assay [2] is 35.9 µM (inactive); in assay [3], > 100 µM (inactive); in [4], 45.2 µM (inactive); in assay [5], > 100 µM (inactive); in [6], 81.1 µM (inactive); in assay [7], > 100 µM (inactive). The GI50 in [14] is > 100 µM (inactive); in assay [8], > 100 µM (inactive); in assay [9] it was 25.9 µM (inactive); in assay [10], > 100 µM (inactive); in [11], 86.1 µM (inactive); in assay [12], 41.2 µM (inactive).
On to `OCC1=CC(NC2CC(CO)C(O)C(O)C2O)C(O)C(O)C1O` (centres undefined), for which the GI50 in assay [13], in assay [2], in assay [3], in [4], in assay [6] and in assay [7] was > 100 µM (inactive) throughout. Moreover, the GI50 in assay [8], in assay [9], in [10] and in assay [11] was > 100 µM (inactive) each time.
Consider `CC12CC[C@@H](C(C)(C)O)C1[C@@H](O)CC1(C)C2CCC2[C@@]3(C)CC[C@H](O)C(C)(C)C3C(O)C[C@]21C` (some centres undefined), for which the GI50 in assay [1] is 13.5 µM (inactive); in assay [13] it was 6.85 µM (inactive); in assay [2] it was 11.3 µM (inactive); in [3] it was > 10 µM (inactive); in assay [4] it was 18 µM (inactive); in assay [5], 17.4 µM (inactive). Also, the GI50 in [6] is 21.3 µM (inactive); in assay [7], 21.1 µM (inactive); in assay [14], 18.7 µM (inactive); in assay [8] it was 16.8 µM (inactive); in [9], 15.6 µM (inactive); in assay [10], 16.4 µM (inactive). For the same compound, the GI50 was 11.5 µM (inactive) in assay [11] and 5.27 µM (inactive) in [12].
For the compound `Cn1c(=O)nc2n(-c3ccc(O)cc3)c3ccccc3nc-2c1=O`, the GI50 in assay [1] was > 100 µM (inactive); in [2], 33 µM (inactive); in assay [3] it was > 100 µM (inactive); in [4], 76.4 µM (inactive); in assay [5], 26.4 µM (inactive); in assay [6], 63.7 µM (inactive). Also, the GI50 in assay [7] was > 100 µM (inactive); in assay [14], 82.2 µM (inactive); in assay [8] it was 17.9 µM (inactive); in [9] it was 16.4 µM (inactive); in [10], > 100 µM (inactive); in assay [11] it was 36.7 µM (inactive). Moreover, in [12], the GI50 is > 100 µM (inactive).
With `O=C(C#Cc1cnc(O)nc1O)c1ccccc1Cl`, the GI50 in assay [1] was 17.9 µM (inactive); in [13], 3.07 µM (inactive); in assay [2], 3.94 µM (inactive); in assay [3] it was 14.7 µM (inactive); in assay [4] it was 14.2 µM (inactive); in [5], 19.7 µM (inactive). Besides, the GI50 in assay [6] was 23.9 µM (inactive); in assay [7] it was 52.6 µM (inactive); in [14], 16.2 µM (inactive); in assay [8] it was 14.2 µM (inactive); in assay [9] it was 16.4 µM (inactive); in assay [10], 21.6 µM (inactive). Besides, the results for the GI50 in [11] and in [12] were 79.1 µM (inactive) and 13.3 µM (inactive), respectively.
